A melting point compilation (Tetko et al.; mined from patent text by program, amines drawn as free bases though some values may be those of a salt)

Structure (SMILES)	melting point [°C]
CN[C@@H](C)[C@@H]1CCN(c2c(F)cc3c(=O)[nH]c(=O)n(C4CC4)c3c2C)C1	> 250
COC(=O)c1sc2c(c1C)c1ccccc1n2C	166 to 167
Nc1c(Cl)cc(C(O)CNCCCCCCOCCCCCCc2cncnc2)cc1Cl (stereo not given)	59 to 60
CC(NC(=O)C(C)(C(C)C)C(C)C)c1ccco1 (stereo not given)	57 to 60
O=CC(=C(Cl)c1ccc(Cl)cc1Cl)c1ccc(Cl)cc1	128
Nc1ccc2c(c1)CCC1CC(=O)NN=C21 (stereo not given)	290 to 291
CCCCCC(CC(=O)Nc1cc(CNC(N)=O)ccc1C(C)(C)C)c1ccc(OC)cc1OC (stereo not given)	112 to 113
COc1ccccc1C1=NN(C(=O)c2cccnc2)CC1C (stereo not given)	124 to 125
COc1cc(C(C)=O)ccc1OCCCN1C2CCC1CC(c1n[nH]c3cc(F)ccc13)C2 (stereo not given)	157 to 158
O=C(O)COCCc1cc2cc(Cl)ccc2n1S(=O)(=O)c1ccccc1	135 to 137
CCN(CC)C(=O)C(=NNc1ccccc1)C(C)=O	63 to 65
CCCS(=O)(=O)Oc1c(C(=O)c2ccc3c(c2C)C(SCC)CCS3(=O)=O)cnn1CC (stereo not given)	140 to 145
COC(=O)C[C@H]1C[C@@H](CCc2c(-c3ccc(F)cc3)c(-c3ccccc3)c(C(=O)NCc3ccccc3)n2C(C)C)OC(C)(C)O1	65 to 67
O=C1SCC(O)=C1Cc1ccc(OCCc2ccccc2)cc1	170 to 171
N#CCC(=O)Nc1ccc(-c2ncc(C(=O)O)c(O)n2)cc1	> 280
CC(C)NC(=O)N1CCC(CN2C(=O)C3(COc4cc5c(cc43)CCO5)c3ccccc32)C1 (stereo not given)	107 to 115
COc1nc(OC)nc(C2(c3nc(OC)nc(OC)n3)OC(=O)c3c(Cl)cccc32)n1	126 to 127
CN(Cc1sc2c(=O)c(C(=O)NCc3ccc(Cl)cc3)cn(C)c2c1CNS(C)(=O)=O)C[C@@H](O)c1ccccn1	171 to 177
CC#CCOc1cc(/C=C/C(=O)Nc2ccccc2C(=O)O)ccc1OC	170 to 171
O=C(c1cc2ccnc(Cl)c2[nH]1)N1CCOCC1	170 to 171
Cc1c(F)cc(C(C)(C)C)c(O)c1-c1nc2ccc(F)cc2c(=O)[nH]1	247 to 248
COc1ccc(CCN(C)CCOc2ccc(NC(=O)c3cccc4c(=O)c5ccccc5[nH]c34)cc2)cc1	165
O=C(Nc1ccccc1F)O[C@@H]1CN=C(c2ccccc2)O[C@H]1c1ccccc1 (racemic)	98
Cn1ncc(/C=C/C(=O)Nc2ccc(CCc3cscn3)cc2)c1-c1ccc(F)cc1	211 to 212
CNC(=S)C1(c2cccnn2)CCCS1 (stereo not given)	199

Structure (SMILES)	melting point [°C]
COCCCN1CCC(CNC(=O)c2cc(Cl)c(N)c(OC)c2OC)C(O)C1 (stereo not given)	110
CCOC(=O)c1cn(CC)nc1O	109 to 110
COc1ccc2c(c1)c(CC(=O)OCC(=O)O)c(C)n2C(=O)c1c(F)cccc1F	186
Cc1csc2[nH]c(=O)n(Cc3ccc(Br)cc3F)c(=O)c12	296 to 298
COc1cc(/C=C/C=C/C(=O)NCCCC2CNCCC2c2c[nH]c3ccccc23)cc(OC)c1O (stereo not given)	176 to 179
O=Cc1cn(CCCCl)c2ccc(Cl)cc12	107 to 108
Cc1oc(-c2ccccc2)nc1CCOc1ccc(CCCBr)cc1	78 to 79
COC(=O)[C@H]1C[C@H](C(=O)O)Nc2cc(Br)cc(Br)c21 (relative stereo)	171 to 173
Cc1ccc(-c2c(NS(=O)(=O)c3ccc(C(C)(C)C)cc3)ncnc2OCCOc2ncc(C=O)cn2)cc1	191 to 193
O=C1C(=O)N(c2ccc(Cl)cc2[N+](=O)[O-])C(=O)N1c1cccc(Cl)c1	133
CC(C)OP(=O)(/C=C/CCn1cnc2c(Cl)ncnc21)OC(C)C	105
N#Cc1c(-c2ccc(OCc3ccccc3)cc2)cn(-c2cccc(OCCCl)c2)c1N	77 to 79
O=C1N(CC2CCC2)c2ccccc2C1(O)c1ccc2c(c1)OCO2 (stereo not given)	124 to 125
CNC(=O)C1(N2C(=O)c3cccc(NC(C)=O)c3C2=O)CCCCC1	205 to 208
OC(c1ccccn1)c1cc(C(F)(F)F)nc2c(C(F)(F)F)cccc12 (stereo not given)	133 to 135
COC(=O)c1cccc(OCc2ccccc2)c1	74 to 77
CC1(COc2ccc(CP(=O)(O)O)cc2)CCCCC1	170 to 172
O=C(O)C1C2CCC(O2)C1C(=O)NCCN1C(=O)NC(c2ccccc2)(c2ccccc2)C1=O (stereo not given)	208 to 210
N#CC(N)C(=O)c1ccc(C=O)cc1 (stereo not given)	122 to 125
CN(CC(O)CO)C(=O)c1c(I)c(C#N)c(I)c(C(=O)NCC(O)CO)c1I (stereo not given)	215
COc1ccc(Sc2cc(Cl)ccc2[N+](=O)[O-])c(C(=O)O)c1	184 to 186
COc1ccnc(-c2sccc2S(C)=O)c1 (stereo not given)	103 to 105
CCOC(=O)Cc1ccc(NCc2cc(Br)ccc2OCc2ccccc2)cc1	73
CCOC(=O)c1c(-c2ccccc2C)c2cc3c(cc2n(C)c1=O)CCC3	134 to 135
O=C(O)/C=C/c1cccc(OS(=O)(=O)C(F)(F)F)c1	107
